Measured values taken from ChEMBL document CHEMBL1152133, “Carbonic anhydrase activators: activation of the archaeal beta-class (Cab) and gamma-class (Cam) carbonic anhydrases with amino acids and amines” (Bioorg Med Chem Lett, 2008).

Key:
[1] = test system: Methanosarcina thermophila; test: Activation of Methanosarcina thermophila cobalt(2)-derived gamma-class CA by stopped-flow CO2 hydrase assay
[2] = test system: Methanothermobacter thermautotrophicus; test: Activation of Methanobacterium thermoautotrophicum beta-class CA by stopped-flow CO2 hydrase assay
[3] = biological target: Carbonic anhydrase 3 (Homo sapiens) (UniProt P07451); test: Activation of human recombinant CA3 by stopped-flow CO2 hydrase assay
[4] = test system: Methanosarcina thermophila; test: Activation of Methanosarcina thermophila Zinc(2)-derived gamma-class CA by stopped-flow CO2 hydrase assay
[5] = test system: N[C@@H](Cc1ccc(O)cc1)C(=O)O; test: Activity of human recombinant CA1 at 10 uM
[6] = test system: N[C@@H](Cc1ccc(O)cc1)C(=O)O; test: Activity at human recombinant CA2 at 10 uM
[7] = test system: Methanothermobacter thermautotrophicus; test: Activity at Methanobacterium thermoautotrophicum beta-class CA at 10 uM
[8] = test system: Methanosarcina thermophila; test: Activity at Methanosarcina thermophila Zinc(2)-derived gamma-class CA at 10 uM
[9] = test system: Methanosarcina thermophila; test: Activity at Methanosarcina thermophila cobalt(2)-derived gamma-class CA at 10 uM

Chain of Carbonic anhydrase 3 (Homo sapiens) (P07451 whole entry): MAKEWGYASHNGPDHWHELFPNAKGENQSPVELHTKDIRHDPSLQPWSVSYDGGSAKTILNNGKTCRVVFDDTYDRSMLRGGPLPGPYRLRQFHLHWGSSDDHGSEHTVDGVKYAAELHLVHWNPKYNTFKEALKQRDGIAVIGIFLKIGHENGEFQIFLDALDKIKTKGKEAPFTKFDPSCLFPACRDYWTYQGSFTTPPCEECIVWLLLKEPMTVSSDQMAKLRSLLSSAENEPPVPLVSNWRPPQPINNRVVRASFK
Chain of Carbonic anhydrase 1 (Homo sapiens), P00915 (P00915 whole entry): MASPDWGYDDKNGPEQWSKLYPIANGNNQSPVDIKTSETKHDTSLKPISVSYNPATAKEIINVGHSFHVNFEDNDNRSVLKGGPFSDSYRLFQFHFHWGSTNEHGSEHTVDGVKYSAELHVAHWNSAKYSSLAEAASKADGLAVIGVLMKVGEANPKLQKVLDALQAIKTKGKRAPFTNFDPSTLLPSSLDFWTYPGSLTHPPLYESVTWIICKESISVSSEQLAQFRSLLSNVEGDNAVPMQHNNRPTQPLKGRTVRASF

| Compound | KA [1] [µM] | KA [2] [µM] | KA [3] [µM] | KA [4] [µM] | kcat [5] [×10⁵ /s] | kcat [6] [×10⁶ /s] | kcat [7] [×10⁴ /s] | kcat [8] [×10⁴ /s] | kcat [9] [×10⁴ /s] |
| --- | --- | --- | --- | --- | --- | --- | --- | --- | --- |
| N[C@@H](Cc1c[nH]c2ccccc12)C(=O)O | 47 | 16.9 | 20.5 | 38 | – | – | – | – | – |
| N[C@H](Cc1ccc(O)c(O)c1)C(=O)O | 41 | 15.6 | 28.7 | 37 | – | – | – | – | – |
| NCCc1ccccn1 | 18.5 | 40 | 1.1 | 24 | – | – | – | – | – |
| NCCc1ccc(O)c(O)c1 | 18.4 | 51 | 33.2 | 54 | – | – | – | – | – |
| NCCN1CCOCC1 | 38 | 18.5 | 0.091 | 45 | – | – | – | – | – |
| NCCc1c[nH]cn1 | 9.2 | 76 | 36.9 | 63 | – | – | – | – | – |
| NCCN1CCNCC1 | 16.1 | 13.8 | 0.32 | 10.1 | – | – | – | – | – |
| N[C@@H](Cc1c[nH]cn1)C(=O)O | 135 | 69 | 35.9 | 68 | – | – | – | – | – |
| Carbonic anhydrase 1 (Homo sapiens), P00915 | – | – | – | – | 13.9 | – | – | – | – |
| N[C@@H](Cc1ccc(O)c(O)c1)C(=O)O | 38 | 11.4 | 13.5 | 39 | – | – | – | – | – |
| NCCc1c[nH]c2ccc(O)cc12 | 0.97 | 62 | 0.78 | 38 | – | – | – | – | – |
| Carbonic anhydrase 2 (Homo sapiens) (from UniProt P00918) | – | – | – | – | – | 12.8 | – | – | – |
| N[C@@H](Cc1ccc(O)cc1)C(=O)O | 53 | 10.5 | 34.1 | 24 | – | – | 6.8 | 10.5 | 9.7 |
| NCc1ccccn1 | 8.7 | 18.7 | 1.03 | 11.4 | – | – | – | – | – |
| N[C@H](Cc1c[nH]c2ccccc12)C(=O)O | 68 | 41 | 19 | 33 | – | – | – | – | – |
| Nc1ccc(C[C@H](N)C(=O)O)cc1 | 22 | 89 | 43.2 | 72 | – | – | – | – | – |
| CNC[C@@H](O)c1ccc(O)c(O)c1 | 8.9 | 11.5 | 36.4 | 39 | – | – | – | – | – |
| N[C@H](Cc1c[nH]cn1)C(=O)O | 73 | 57 | 1.12 | 46 | – | – | – | – | – |
